Data on one compound can be found in article PMC8968952, “Modulation of ERCC1-XPF Heterodimerization Inhibition via Structural Modification of Small Molecule Inhibitor Side-Chains” (Frontiers in Oncology, 2022).

pIC50: −log10 of the molar value. Several values for one entry are separate records, joined by “and”; a condition that tells them apart may be missing. Equal entries are not always repeated. Bounds are passed on as bounds.

The target in one series is T1, ERCC1-XPF (Homo sapiens, UniProt Q92889).
T1 construct: the final purity of the full-length ERCC1-XPF heterodimer was determined to be ~35%; His6; made in house; host or cells: E. coli BL21(DE3)
T1 sequence (Q92889 1-916): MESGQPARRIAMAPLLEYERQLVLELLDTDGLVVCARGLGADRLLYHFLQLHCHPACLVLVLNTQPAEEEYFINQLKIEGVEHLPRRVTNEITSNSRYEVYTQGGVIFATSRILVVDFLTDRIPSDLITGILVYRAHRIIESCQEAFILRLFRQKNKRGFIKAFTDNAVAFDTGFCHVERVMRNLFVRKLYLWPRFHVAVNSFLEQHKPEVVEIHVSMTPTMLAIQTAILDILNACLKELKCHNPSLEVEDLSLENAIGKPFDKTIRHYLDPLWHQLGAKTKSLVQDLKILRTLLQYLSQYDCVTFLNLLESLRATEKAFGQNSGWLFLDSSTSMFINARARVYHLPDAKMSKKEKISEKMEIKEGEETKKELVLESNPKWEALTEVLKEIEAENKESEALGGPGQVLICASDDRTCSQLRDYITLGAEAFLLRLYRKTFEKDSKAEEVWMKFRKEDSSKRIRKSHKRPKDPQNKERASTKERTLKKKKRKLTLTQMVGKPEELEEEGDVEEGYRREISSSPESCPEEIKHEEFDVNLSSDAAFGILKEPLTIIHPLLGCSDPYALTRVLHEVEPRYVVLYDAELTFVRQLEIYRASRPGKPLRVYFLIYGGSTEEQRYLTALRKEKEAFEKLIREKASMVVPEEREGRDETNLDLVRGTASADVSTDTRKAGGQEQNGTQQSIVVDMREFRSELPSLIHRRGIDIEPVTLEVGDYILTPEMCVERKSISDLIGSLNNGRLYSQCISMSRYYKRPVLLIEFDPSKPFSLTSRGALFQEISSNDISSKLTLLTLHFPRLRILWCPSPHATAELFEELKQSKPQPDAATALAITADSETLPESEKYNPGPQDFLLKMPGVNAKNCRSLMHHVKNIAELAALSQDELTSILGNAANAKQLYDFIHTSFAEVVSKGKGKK
Description: Microplate fluorescence incision assay (endonuclease activity). The format is biochemical. From the text:
Recombinant human ERCC1–XPF wild-type protein (containing polyhistidine (His-6) tags) was expressed from a bicistronic plasmid (kindly provided by Dr. Richard Wood, University of Texas MD Anderson Cancer Center, Smithville, TX) in the E. coli BL21(DE3) strain, Following previously described procedures ([70], [78]) the proteins extracted from E. coli were eluted from a ProBond Nickel-Chelating Resin (Thermo Fisher Scientific) and then a Hi-trap heparin column (GE Healthcare). Fractions containing ERCC1–XPF were dialyzed, concentrated, and stored at −80°C in 10 mM HEPES, pH 7.4, 2.5 mM β-mercaptoethanol, 0.01% CHAPS, 0.25 mM EDTA, 50% glycerol, and 25 mM NaCl. Based on polyacrylamide gel separation and Coomassie Blue staining, the final purity of the full-length ERCC1-XPF heterodimer was determined to be ~35%.
We employed a previously described protocol ([60], [70], [78]) in which the incision of the stem–loop substrate [6-FAM-5′-[…](20T)[…]-3′-dabcyl] (100 nM in 50 mM Tris-HCl, pH 8, 20 mM NaCl, 0.5 mM DDT, and 0.75 mM MnCl2) mediated by ERCC1-XPF (25 ng) in a total volume of 20 μL at 25°C was monitored by fluorescence using a FLUOstar Optima fluorimeter (BMG Labtech) with Optima software and excitation and emission wavelengths of 485 and 520 nm, respectively, for 5.5 min. The final concentration of inhibitor in the reaction was 10 μM prepared from a 200 μM stock solution in DMSO. With a molecular weight of 151 KDa for the XPF-ERCC1 heterodimer, a concentration of 25 ng of protein in 20 µl reaction buffer and a purity of 35%, the molar concentration of the enzyme was estimated to be 2.9 nM. Data were plotted using Microsoft Excel 2016.
An in vitro fluorescence-based assay was used to assess the ability of the synthesized compounds to inhibit the endonuclease activity of ERCC1-XPF. This assay has been previously described ([60], [70], [78]) and makes use of a stem-loop DNA substrate with a 5’-FAM fluorescent dye, and a 3’-dabcyl quencher. When ERCC1-XPF can cleave the DNA substrate, a 5’-FAM containing molecule is liberated from the stem-loop (and the quencher) and the fluorescence of the solution increases. The increase of the fluorescence of the solution can be observed in Figure 3A , in the absence of any inhibitor. To determine the influence of the inhibitory compounds, the protein was preincubated for 10 minutes with 10 μM of each inhibitor prior to addition of the substrate.

For a further series, the system named is HCT-116 cells. Description: Clonogenic survival assay, UV treatment. The format is cell-based, human. As to the method:
HCT-116 cells (100–800 cells depending on the UV dose) were plated in triplicate in 60-mm Petri dishes in DMEM/F12 medium. Following overnight attachment of the cells in a humidified atmosphere containing 5% CO2 at 37°C, the cells were treated with 0.5 μM compound 6 or 10 in DMSO (as described in section 2.7) for 4 h before the medium was removed, and the cells exposed to increasing doses (0–10 J/m^2) of UV-C radiation. The cells were then cultured for a further 24 h in the presence of inhibitor and then for an additional 9 days in the absence of inhibitor to allow for colony formation. Colonies were stained with crystal violet and counted using a Colcount instrument (Oxford Optronix, Abingdon UK) to facilitate determination of plating efficiency and surviving fraction. Data were plotted using GraphPad Prism version 5.04 software.

The nature of series [1]: Bidirectional permeability in Caco-2 cells. The format is in vitro ADME. As to conditions: human. As to the method:
The ADME (absorption, distribution, metabolism, and excretion) profile of our lead compound 6 was determined by standard protocols carried out by WuXi AppTec (Shanghai) Co (https://www.wuxiapptec.com/). The following tests were conducted: distribution coefficient (log D at pH 7.4), aqueous solubility (Kinetic), metabolic stability in human liver microsomes and cryopreserved human hepatocytes, bidirectional permeability in Caco-2 cells, serum protein binding, and cytochrome P450 (CYP) inhibition (CYP1A2, CYP2C9, CYP2C19, CYP2D6, and CYP3A4-M).

On to `COc1ccc2nc3cc(Cl)ccc3c(Nc3ccc(O)c(CN4CCN(CCN(C(C)C)C(C)C)CC4)c3)c2c1` [Compound 6], for which the pIC50 against ERCC1-XPF is 6.78 and 6.77. On ERCC1-XPF (10 μM inhibitor, 10 min preincubation), the “inhibition of ERCC1-XPF endonuclease activity (in words, vs control and 4)” value is “increased inhibition of ERCC1-XPF endonuclease activity relative to 4”. The “decrease of ERCC1-XPF endonuclease activity” value at ERCC1-XPF (10 μM inhibitor, at 5.5 minutes) is reported as 94%. Further, the “sensitization to UVC radiation (in words)” value in the series with HCT-116 cells (0.5 μM) is “sensitized cells to UVC radiation”. The “cell survival after UVC” value in the series on HCT-116 cells (0.5 μM compound, 4 J/m^2 UVC) was < 50%. In addition, the efflux ratio in series [1] was found to be 27.5.
